{"source": "patent US20250340561A1", "about": "“QUINAZOLINE COMPOUND FOR INDUCING DEGRADATION OF G12D MUTANT KRAS PROTEIN” (Astellas Pharma Inc., priority 2021, published 2025)", "data": [{"molecular_target": "T1, KRAS G12D (Homo sapiens, UniProt P01116, G12D)", "T1 construct": "host or cells: AsPC-1 human pancreatic cancer cells", "T1 sequence (P01116 1-188 isoform P01116-2 G12D)": "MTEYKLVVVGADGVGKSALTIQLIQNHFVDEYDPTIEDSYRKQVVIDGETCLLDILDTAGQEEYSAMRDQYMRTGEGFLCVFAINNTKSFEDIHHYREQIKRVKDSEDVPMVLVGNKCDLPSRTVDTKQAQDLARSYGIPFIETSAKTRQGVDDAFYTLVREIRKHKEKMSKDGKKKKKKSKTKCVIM", "test": "Test Example 1-2: KRAS degradation action in AsPC-1, Cell ELISA", "assay_type": "cell-based", "details": "AsPC-1 cells, overnight treatment, corrected with β-actin, 0% = 10 μM Example No. 26 (Example No. 8 for Example Nos. 74 and 75)", "description": "Test Example 1-2: Evaluation of KRAS Degradation Action on Human G12D Mutant KRAS-Positive Pancreatic Cancer Line AsPC-1\nThe KRAS degradation action of test compounds was evaluated by measuring the expression levels of KRAS G12D by Cell ELISA.\n[…] As for the cell culture conditions, a RPMI 1640 medium containing 10% fetal bovine serum was used in the presence of 5% CO2 at 37° C. The next day, the test compounds (10 points having final concentrations in the range of 10 μM to 0.3 nM), the compound of Example No. 26 (Example No. 8 for Example Nos. 74 and 75) of a final concentration of 10 μM as a positive control and DMSO, which was the solvent for the test compounds, as a negative control were diluted 500-fold with a fresh medium and were added at 20 μL per well. The cells were cultured overnight.\nThe next day, the culture supernatant was removed, and 4% paraformaldehyde phosphate buffer (from FUJIFILM Wako Pure Chemical Corporation) was added at 20 μL per well. The plate was allowed to stand for 30 minutes at room temperature to thus immobilize the cells. Then, the supernatant was removed, and 0.1% Triton X-100 (from Amersham Biosciences)-containing PBS was added at 20 μL per well. After allowing to stand for 10 minutes at room temperature, the supernatant was removed. PBS was added at 25 μL per well, and the supernatant was removed to thus wash each well. The washing was performed twice in total. Next, the supernatant was removed, and 0.5% sodium dodecyl sulfate (SDS; from Invitrogen)-containing PBS was added at 20 μL per well. After allowing to stand at room temperature for 10 minutes, the supernatant was removed by centrifugation (using a centrifugal dehydrator machine, the supernatant was removed by the same method hereinafter). PBS was added at 25 μL per well, and the supernatant was removed to thus wash each well. The washing was performed twice in total. The supernatant was removed by centrifugation, and a blocking solution (Intercept Blocking Buffer) was added at 20 μL per well. After allowing to stand for 30 minutes at room temperature, the supernatant was removed by centrifugation, and a solution obtained by diluting an anti-Ras (G12D Mutant Specific) antibody and an anti-3-actin antibody 1,000-fold with a blocking solution was added at 20 μL per well as a primary antibody. The plate was allowed to stand overnight at 4° C.\nThe next day, the plate was centrifuged to remove the supernatant. PBS was added at […], and the supernatant was removed to thus wash each well. The washing was performed twice in total. The supernatant was removed by centrifugation, and a solution obtained by diluting Donkey anti-Mouse IgG H&L (TRDye 680RD) (from Li—COR Biosciences) and Goat anti-Rabbit IgG H&L (IRDye 800CW) (from Li—COR Biosciences) 1,000-fold with a blocking solution was added at 20 μL per well as a secondary antibody. After allowing to stand for 1 hour at room temperature, the supernatant was removed. PBS was added at 25 μL per well, and the supernatant was removed to thus wash each well. The washing was performed twice in total. After removing the supernatant by centrifuging the plate, the plate was dried as it was with air at room temperature for 2 hours or more, and the 700-nm and 800-nm fluorescent signals were measured with Aerius (from LI-COR Biosciences).\nWith the signaling value at the time of addition of DMSO corrected with the signaling value of β-actin taken as 100% and with the signaling value at the time of addition of 10 μM of the compound of Example No. 26 taken as 0%, the 50% degradation values (DC50) of the amounts of KRAS were calculated by Sigmoid-Emax model nonlinear regression analysis. The molecular weights of the test compounds were calculated as the molecular weights of the trihydrochloride for Example No. 30, the tetrahydrochloride for Example No. 46 and the free forms forming no salt for the remaining Example Nos. The results for some test compounds of the formula (I) are shown in Table 2.", "units": {"DC50": "nM"}, "values": [{"smiles": "Cc1ncsc1-c1ccc([C@H](CO)NC(=O)[C@@H]2C[C@@H](O)CN2C(=O)[C@H](C(C)C)n2cc(-c3ccc(COc4c(-c5c(C)c(F)cc6[nH]ncc56)c(C5CC5)cc5c(N6C[C@@H]7C[C@H]6CN7)nc(O[C@H](C)CN(C)C)nc45)cc3)nn2)cc1", "note": "[Example 46]", "DC50": 37}, {"smiles": "Cc1ncsc1-c1ccc([C@H](CO)NC(=O)[C@@H]2C[C@@H](O)CN2C(=O)[C@H](C(C)C)n2cc(-c3ccc(COc4c(-c5c(C)c(F)cc6[nH]ncc56)c(C5CC5)cc5c(N6C[C@@H]7C[C@H]6CN7)nc(OCC6(CO)CC6)nc45)cc3)nn2)cc1", "note": "[Example 61]", "DC50": 21}, {"smiles": "Cc1ncsc1-c1ccc([C@H](CO)NC(=O)[C@@H]2C[C@@H](O)CN2C(=O)[C@H](C(C)C)n2cc(-c3ccc(COc4c(-c5c(C)c(F)cc6[nH]ncc56)c(C5CC5)cc5c(N6C[C@@H]7C[C@H]6CN7)nc(OCC67CCCN6CCC7)nc45)cc3)nn2)cc1", "note": "[Example 44]", "DC50": 111}, {"smiles": "Cc1c(F)cc2[nH]ncc2c1-c1c(C2CC2)cc2c(N3C[C@@H]4C[C@H]3CN4)nc(OC3CCOCC3)nc2c1OCc1ccc(-c2cn([C@H](C(=O)N3C[C@H](O)C[C@H]3C(=O)N[C@@H](CO)c3ccccc3F)C(C)C)nn2)cc1", "note": "[Example 30]", "DC50": 157}, {"smiles": "COC[C@@H](C)Oc1nc(N2C[C@@H]3C[C@H]2CN3)c2cc(C3CC3)c(-c3c(C)c(F)cc4[nH]ncc34)c(OCc3ccc(-c4cn([C@H](C(=O)N5C[C@H](O)C[C@H]5C(=O)N[C@@H](CO)c5ccc(-c6scnc6C)cc5)C(C)C)nn4)cc3)c2n1", "note": "[Example 40]", "DC50": 5}, {"smiles": "CO[C@H](C)COc1nc(N2C[C@@H]3C[C@H]2CN3)c2cc(C3CC3)c(-c3c(C)c(F)cc4[nH]ncc34)c(OCc3ccc(-c4cn([C@H](C(=O)N5C[C@H](O)C[C@H]5C(=O)N[C@@H](CO)c5ccc(-c6scnc6C)cc5)C(C)C)nn4)cc3)c2n1", "note": "[Example 47]", "DC50": 13}, {"smiles": "CCn1nccc1-c1ccc([C@H](CO)NC(=O)[C@@H]2C[C@@H](O)CN2C(=O)[C@H](C(C)C)n2cc(-c3ccc(COc4c(-c5c(C)c(F)cc6[nH]ncc56)c(C5CC5)cc5c(N6C[C@@H]7C[C@H]6CN7)nc(OC[C@H](C)OC)nc45)cc3)nn2)cc1", "note": "[Example 70]", "DC50": 14}, {"smiles": "Cc1c(F)cc2[nH]ncc2c1-c1c(C2CC2)cc2c(N3C[C@@H]4C[C@H]3CN4)nc(OC3CCOCC3)nc2c1OCc1ccc(-c2cn([C@H](C(=O)N3C[C@H](O)C[C@H]3C(=O)N[C@@H](CO)c3cccc(F)c3)C(C)C)nn2)cc1", "note": "[Example 63]", "DC50": 70}, {"smiles": "Cc1ncsc1-c1ccc([C@H](CO)NC(=O)[C@@H]2C[C@@H](O)CN2C(=O)[C@H](C(C)C)n2cc(-c3ccc(COc4c(-c5c(C)c(F)cc6[nH]ncc56)c(C5CC5)cc5c(N6C[C@@H]7C[C@H]6CN7)nc(NCCO)nc45)cc3)nn2)cc1", "note": "[Example 66]", "DC50": 250}, {"smiles": "Cc1ncsc1-c1ccc([C@H](CO)NC(=O)[C@@H]2C[C@@H](O)CN2C(=O)[C@H](C(C)C)n2cc(-c3ccc(COc4c(-c5c(C)c(F)cc6[nH]ncc56)c(C5CC5)cc5c(N6C[C@@H]7C[C@H]6CN7)nc(OC[C@H](C)N6CCCC6)nc45)cc3)nn2)cc1", "note": "[Example 64]", "DC50": 48}, {"smiles": "CO[C@@H](C)COc1nc(N2C[C@@H]3C[C@H]2CN3)c2cc(C3CC3)c(-c3c(C)c(F)cc4[nH]ncc34)c(OCc3ccc(-c4cn([C@H](C(=O)N5C[C@H](O)C[C@H]5C(=O)N[C@@H](CO)c5ccc(-c6scnc6C)cc5)C(C)C)nn4)cc3)c2n1", "note": "[Example 48]", "DC50": 4}, {"smiles": "Cc1ncsc1-c1ccc([C@H](CO)NC(=O)[C@@H]2C[C@@H](O)CN2C(=O)[C@H](C(C)C)n2cc(-c3ccc(COc4c(-c5c(C)c(F)cc6[nH]ncc56)c(C5CC5)cc5c(N6C[C@@H]7C[C@H]6CN7)nc(OC[C@H](C)N6CCOCC6)nc45)cc3)nn2)cc1", "note": "[Example 65]", "DC50": 14}, {"smiles": "Cc1ncsc1-c1ccc([C@H](CO)NC(=O)[C@@H]2C[C@@H](O)CN2C(=O)[C@H](C(C)C)n2cc(-c3ccc(COc4c(-c5c(C)c(F)cc6[nH]ncc56)c(C5CC5)cc5c(N6C[C@@H]7C[C@H]6CN7)nc(OC[C@@H]6CCCN6C)nc45)cc3)nn2)cc1", "note": "[Example 57]", "DC50": 134}, {"smiles": "Cc1ncsc1-c1ccc([C@H](CO)NC(=O)[C@@H]2C[C@@H](O)CN2C(=O)[C@H](C(C)C)n2cc(-c3ccc(COc4c(-c5c(C)c(F)cc6[nH]ncc56)c(C5CC5)cc5c(N6C[C@@H]7C[C@H]6CN7)nc(OC6CCOCC6)nc45)cc3)nn2)nc1", "note": "[Example 35]", "DC50": 84}, {"smiles": "Cc1ncsc1-c1ccc([C@H](CO)NC(=O)[C@@H]2C[C@@H](O)CN2C(=O)[C@H](C(C)C)n2cc(-c3ccc(COc4c(-c5c(C)c(F)cc6[nH]ncc56)c(C5CC5)cc5c(N6C[C@@H]7C[C@H]6CN7)nc(OC[C@H]6CCOC6)nc45)cc3)nn2)cc1", "note": "[Example 51]", "DC50": 11}, {"smiles": "Cc1ncsc1-c1ccc([C@H](CO)NC(=O)[C@@H]2C[C@@H](O)CN2C(=O)[C@H](C(C)C)n2cc(-c3ccc(COc4c(-c5c(C)c(F)cc6[nH]ncc56)c(C5CC5)cc5c(N6C[C@@H]7C[C@H]6CN7)nc(OC[C@H]6CCOC6)nc45)cc3)nn2)cc1", "note": "[Example 52]", "DC50": 10}, {"smiles": "Cc1ncsc1-c1ccc([C@H](CO)NC(=O)[C@@H]2C[C@@H](O)CN2C(=O)[C@H](C(C)C)n2cc(-c3ccc(COc4c(-c5c(C)c(F)cc6[nH]ncc56)c(C5CC5)cc5c(N6C[C@@H]7C[C@H]6CN7)nc(O[C@H](C)[C@@H](C)O)nc45)cc3)nn2)cc1", "note": "(atropisomer, axis not shown) [Example 37]", "DC50": 25}, {"smiles": "COCC1(COc2nc(N3C[C@@H]4C[C@H]3CN4)c3cc(C4CC4)c(-c4c(C)c(F)cc5[nH]ncc45)c(OCc4ccc(-c5cn([C@H](C(=O)N6C[C@H](O)C[C@H]6C(=O)N[C@@H](CO)c6ccc(-c7scnc7C)cc6)C(C)C)nn5)cc4)c3n2)CC1", "note": "[Example 62]", "DC50": 10}, {"smiles": "Cc1ncsc1-c1ccc([C@H](CO)NC(=O)[C@@H]2C[C@@H](O)CN2C(=O)[C@H](C2CC2)n2cc(-c3ccc(COc4c(-c5c(C)c(F)cc6[nH]ncc56)c(C5CC5)cc5c(N6C[C@@H]7C[C@H]6CN7)nc(OC6CCOCC6)nc45)cc3)nn2)cc1", "note": "[Example 73]", "DC50": 134}, {"smiles": "COC[C@H](CN1CCOCC1)Oc1nc(N2C[C@@H]3C[C@H]2CN3)c2cc(C3CC3)c(-c3c(C)c(F)cc4[nH]ncc34)c(OCc3ccc(-c4cn([C@H](C(=O)N5C[C@H](O)C[C@H]5C(=O)N[C@@H](CO)c5ccc(-c6scnc6C)cc5)C(C)C)nn4)cc3)c2n1", "note": "[Example 55]", "DC50": 24}, {"smiles": "Cc1c(F)cc2[nH]ncc2c1-c1c(C2CC2)cc2c(N3C[C@@H]4C[C@H]3CN4)nc(OC3CCOCC3)nc2c1OCc1ccc(-c2cn([C@H](C(=O)N3C[C@H](O)C[C@H]3C(=O)N[C@@H](CO)c3ccc(-n4ccnc4C)cc3)C(C)C)nn2)cc1", "note": "[Example 69]", "DC50": 31}]}]}
